Results taken from patent US4820715A, “Anti-emetic quinuclidinyl benzamides” (Bristol-Myers Company, priority 1987, dated 1989).
pEC50, pIC50: −log10 of the molar value.

Columns and labels:
[1] = system: Cisplatin-Induced Emesis; experiment: Antagonism of Cisplatin-Induced Emesis in the Ferret; type: in vivo, Fitch ferrets; conditions: Mustela putorius, iv, 4 h; 3 mg/kg, i.v. × 2; read-out: Antagonism of Cisplatin-Induced Emesis in the Ferret, % Protection
[2] = system: Apomorphine-Induced Emesis; experiment: Antagonism of Apomorphine-Induced Emesis in Dogs; type: in vivo, beagle dogs; conditions: Canis lupus familiaris, sc; s.c. 30 minutes prior to apomorphine 0.3 mg/kg; dog; read-out: Antagonism of Apomorphine-Induced Emesis in the Dog ED50
Protocol: Unfasted beagle dogs of both sexes were used as test subjects. Test compounds and apomorphine were each administered subcutaneously as aqueous solutions, with the test compound being administered 30 minutes prior to the administration of the apormorphine.
Apomorphine was administered at a dose of 0.3 mg/kg. […] All tests were run in at least two dogs.

[3] = system: field-stimulated guinea pig ileum; experiment: Gastrokinetic Activity: contraction of field-stimulated guinea pig ileum preparations; set-up: species or system guinea pig (Hartley); conditions: Cavia porcellus; for EC30: effective concentration30, read-out: EC30 (95% C.L.); for pEC50: effective concentration50, read-out: EC50 (95% C.L.); for minimal effective concentration: read-out: Minimum Effective Concentration
[4] = target: dopaminergic (D2) receptors (Rattus norvegicus, UniProt P61169); experiment: biochemical; type: binding; conditions: striatal rat brain homogenates, ^3H-spiperone, 37° C., 15 minutes; read-out: 3H-Spiperone Displacement IC50
Chain of dopaminergic (D2) receptors (P61169 whole entry): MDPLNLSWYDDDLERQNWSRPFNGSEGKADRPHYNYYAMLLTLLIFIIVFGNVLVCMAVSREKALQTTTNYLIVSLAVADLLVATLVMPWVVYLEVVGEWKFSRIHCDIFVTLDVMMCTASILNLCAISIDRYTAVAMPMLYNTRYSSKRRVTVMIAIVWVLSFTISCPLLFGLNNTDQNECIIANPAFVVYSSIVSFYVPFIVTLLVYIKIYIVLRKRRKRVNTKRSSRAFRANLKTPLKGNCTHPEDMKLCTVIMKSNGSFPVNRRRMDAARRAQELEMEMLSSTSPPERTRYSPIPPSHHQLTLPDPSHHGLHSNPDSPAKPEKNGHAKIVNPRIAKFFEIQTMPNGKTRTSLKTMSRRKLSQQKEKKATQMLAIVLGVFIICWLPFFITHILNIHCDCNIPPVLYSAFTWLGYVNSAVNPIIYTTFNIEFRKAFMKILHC
Protocol: Rats (150±10 g; Charles River) were decapitated, the corpus striatum dissected out and frozen on dry ice. The tissues were pooled and stored at -80° C. until used. Homogenates (Brinkmann Polytron) of the corpus striatum in cold HEPES.KOH buffer (final pH=7.4) were centrifuged at 39,000×G. The supernatant was discarded and the pellets were re-suspended in HEPES.KOH buffer and re-centrifuged as above.
Tests to determine the Inhibitory Concentration50 (IC50) of the compounds of Formula I and reference compounds versus ^3 H-spiperone were conducted as follows. Tubes containing either 100 μL of buffer mixture (for total binding), 100 μL of buffer mixture plus 100 μL of 10^-4 M D(+)-butaclamol (for blanks, i.e. non-specific binding), or 100 μL of buffer mixture containing 10^-7, 10^-6 or 10^-5 M test compound were prepared. To each were added 100 μL of a solution of ^3 H-spiperone (New England Nuclear) in buffer mixture (2000 c.p.m. in the incubation mixture) and 800 μL of the striatal tissue suspension. The tubes were then diluted to 1 mL with buffer mixture, giving a final concentration of 10^-8, 10^-7 or 10^-6 M test compound and approximately 100 pM ^3 H-spiperone. The samples were incubated at 37° C. for 15 minutes, filtered in vacuo on glass fiber filters and counted by liquid scintillation spectrometry. […] All samples were run in duplicate.

[5] = read-out: Average % Maximum Increase

SMILES | inhibition in vivo at 3 mg/kg [1] [%] | ED50 [2] [mg/kg] | activation at 30 µM [3, 5] [%] | EC30 [3] [µM] | pEC50 [3] | minimal effective concentration [3] [µM] | pIC50 [4] | activation at 10 µM ([3]; at 10 μM, read-out: Average % Maximum Increase) [%]
CCN(CC)CCNC(=O)c1cc(Cl)c(N)cc1OCCCC(=O)N(CC)CC [Example 56, 4-Amino-5-chloro-N-[2-(diethylamino)ethyl]-2-(4-diethylamino-4-oxobutoxy)benzamide] | 81 | > 3 | 59 | 1.1 | 5.14 | 0.1 | < 6.00 | 
CCN(CC)CCNC(=O)c1cc(Cl)c(N)cc1OCCCC[S+](C)[O-] (stereo not shown) [Example 58] | 66 | > 3 | 72 | 1.5 | 5.25 | 0.3 | < 6.00 | 
CCN(CC)CCNC(=O)c1cc(Cl)c(N)cc1OCC(=O)N1CCCC1 [Example 59, 4-Amino-5-chloro-N-[2-(diethylamino)ethyl]-2-[2-(1-pyrrolidinyl)-2-oxoethoxy]benzamide] | 66 | > 3 |  | 5.2 | 4.70 | 1 | < 6.00 | 38
CCN(CC)CCNC(=O)c1cc(Cl)c(N)cc1OCC[S+]([O-])CC (stereo not shown) [Example 60] | 52 | > 3 | 66 | 0.88 | 5.32 | 0.1 | < 6.00 | 
